The results in this text go back to ChEMBL document CHEMBL4004854, “Pyrrolo[3',2':6,7]cyclohepta[1,2-b]pyridines with potent photo-antiproliferative activity” (Eur J Med Chem, 2017).

Data set [1] is described as follows: Dark toxicity against human MCF7 cells assessed as reduction in cell viability after 72 hrs by MTT assay. It is filed as cell-based.
Data set [2] relates to K562. The data set is described as follows: Phototoxicity against human K562 cells assessed as reduction in cell viability preincubated for 30 mins followed by 1.25 J/cm2 UV light irradiation measured after 48 hrs by MTT assay. It is filed as functional, cell-based. The following applies: K562, light or radiation study.
For data set [3], the system named is MCF7. The data set is described as follows: Phototoxicity against human MCF7 cells assessed as reduction in cell viability preincubated for 30 mins followed by 1.25 J/cm2 UV light irradiation measured after 48 hrs by MTT assay. To be noted: MCF7, light or radiation study. In kind it is functional, cell-based.
Data set [4] in a line: Dark toxicity against human K562 cells assessed as reduction in cell viability after 72 hrs by MTT assay. It is filed as cell-based.
Data set [5] concerns MCF7. As to the kind of experiment: Phototoxic index, ratio of CC50 for human MCF7 cells under dark condition to EC50 for human MCF7 cells under UV light irradiated condition.
The nature of data set [6]: Dark toxicity against human Jurkat cells assessed as reduction in cell viability after 72 hrs by MTT assay. It is filed as cell-based.
The subject of data set [7] is Jurkat. The data set is described as follows: Phototoxicity against human Jurkat cells assessed as reduction in cell viability preincubated for 30 mins followed by 1.25 J/cm2 UV light irradiation measured after 48 hrs by MTT assay. It is filed as functional, cell-based. To be noted: light or radiation study.
The subject of data set [8] is K562. The data set is described as follows: Phototoxic index, ratio of CC50 for human K562 cells under dark condition to EC50 for human K562 cells under UV light irradiated condition.
For data set [9], the system named is Jurkat. As to the kind of experiment: Phototoxic index, ratio of CC50 for human Jurkat cells under dark condition to EC50 for human Jurkat cells under UV light irradiated condition.

The structures appear in SMILES notation.

Consider `CCOC(=O)c1cc2c(n1C)-c1nc(OC)c(S(=O)(=O)c3ccccc3)cc1CCC2`, for which the CC50 at 72 h in data set [1], in [4] and in data set [6] was above 20 µM throughout. Also, the half-maximal effective concentration (EC50) in [2] is 0.63 µM; in data set [3], 1.7 µM; in data set [7] it was 0.25 µM. The figures for the “Ratio CC50/EC50” value in data set [5], in [8] and in data set [9] were above 11.76, above 31.75 and above 80, respectively.
For the compound `O=c1[nH]c2c(cc1S(=O)(=O)c1ccccc1)CCCc1ccn(Cc3ccccc3)c1-2`, the half-maximal cytotoxic concentration (CC50) at 72 h in [1], in [4] and in data set [6] was above 20 µM each time. The half-maximal effective concentration (EC50) was determined as 8.5 µM in data set [2], 2.72 µM in data set [3] and 3.59 µM in data set [7]. In addition, the “Ratio CC50/EC50” value in data set [5] was above 7.36; in [8], above 2.35; in data set [9] it was above 5.57.
In the case of `CCOC(=O)c1cc2c(n1C)-c1[nH]c(=O)c(S(=O)(=O)c3ccccc3)cc1CCC2`, the CC50 at 72 h in [1], in [4] and in data set [6] was above 20 µM throughout. For the same compound, the concentration giving a half-maximal response (EC50) in [2] is 10.7 µM; in [3], 1 µM; in [7], 3.3 µM. The “Ratio CC50/EC50” value in data set [5] was above 20; in [8], above 1.87; in data set [9], above 6.06.
On to `COc1ccc(Cn2ccc3c2-c2nc(OC)c(S(=O)(=O)c4ccccc4)cc2CCC3)cc1`, for which the CC50 at 72 h in data set [1], in data set [4] and in [6] was above 20 µM throughout. Moreover, the values for the concentration giving a half-maximal response (EC50) in data set [2], in data set [3] and in [7] were 5.67 µM, 4.74 µM and 1.25 µM, respectively. In addition, the “Ratio CC50/EC50” value is given as above 4.22 in [5], above 3.53 in data set [8] and above 16 in [9].
For the compound `CCOC(=O)c1cc2c(n1Cc1ccccc1OC)-c1[nH]c(=O)c(S(=O)(=O)c3ccccc3)cc1CCC2`, the CC50 at 72 h in data set [1], in [4] and in data set [6] was above 20 µM in each case. Also, the EC50 came to 0.27 µM in [2], 0.94 µM in data set [3] and 0.19 µM in [7]. Also, the figures for the “Ratio CC50/EC50” value in data set [5], in data set [8] and in [9] were above 21.36, above 74.07 and above 105.26, respectively.
For the compound `CCOC(=O)c1cc2c(n1C)-c1c(cc(S(=O)(=O)c3ccccc3)c(=O)n1C)CCC2`, the CC50 at 72 h in data set [1], in data set [4] and in data set [6] was above 20 µM throughout. Further, the half-maximal effective concentration (EC50) in data set [2] stood at 3.53 µM; in data set [3] it was 4.76 µM; in data set [7], 1.15 µM. Also, the results for the “Ratio CC50/EC50” value in [5], in [8] and in [9] were above 4.2, above 5.67 and above 17.39, respectively.
For `COc1nc2c(cc1S(=O)(=O)c1ccccc1)CCCc1ccn(C)c1-2`, the CC50 at 72 h in data set [1], in data set [4] and in data set [6] was above 20 µM throughout. The EC50 was determined as 5.76 µM in data set [2], 2.14 µM in [3] and 1.96 µM in data set [7]. Besides, the entries for the “Ratio CC50/EC50” value in data set [5], in [8] and in data set [9] were above 9.35, above 3.47 and above 10.2, respectively.
Take `COc1ccc(Cn2ccc3c2-c2[nH]c(=O)c(S(=O)(=O)c4ccccc4)cc2CCC3)cc1`: the CC50 at 72 h in [1], in data set [4] and in data set [6] was above 20 µM throughout. The concentration giving a half-maximal response (EC50) in data set [2] amounted to 2.54 µM; in data set [3], 4.23 µM; in data set [7] it was 0.93 µM. Besides, the “Ratio CC50/EC50” value was above 4.73 in data set [5], above 7.87 in data set [8] and above 21.51 in [9].
For `Cn1ccc2c1-c1[nH]c(=O)c(S(=O)(=O)c3ccccc3)cc1CCC2`, the half-maximal cytotoxic concentration (CC50) at 72 h in data set [1], in [4] and in data set [6] was above 20 µM throughout. For the same compound, the EC50 in [2] was above 20 µM; in data set [3], 2.96 µM; in data set [7] it was above 20 µM. Further, in data set [5], the “Ratio CC50/EC50” value is above 6.77.
